From patent EP0471841A1, “SULFONAMIDE DERIVATIVE AND PHARMACEUTICAL COMPOSITION CONTAINING THE SAME” (Asahi Kasei Kogyo Kabushiki Kaisha, priority 1990, dated 1991)
Structures can show the parent of a compound that is named as a salt.

Test system: tracheal specimens excised from guinea pigs
Test: Inhibitory effect on KCl-induced contraction of tracheal specimens excised from guinea pigs (Magnus tube)
Type: cell-based
Conditions: Cavia porcellus; dose required for relaxing KCl-induced contraction to 50 %; final KCl concentration: 20 mM; 37 °C; compounds other than acid addition salts used as hydrochloride; 3 specimens per group; read-out: ED₅₀ Effect on KCl-induced contraction
Protocol: The bronchial smooth muscle-relaxing action of the sulfonamide derivative of the present invention was evaluated by the effect on suppression of KCl-induced contraction and PGF2α-induced contraction of bronchial specimens excised from guinea pigs.
According to a method in which tracheal specimens excised from guinea pigs were used (Takagi and Ozawa, "Yakubutsugaku Jikken (Experiments in Pharmacology)", pp.100-102, 1960, published by Nanzando Japan; and Fujiwara and Shibata, "Yakurigaku Kiso Jikenho (Methods of Fundamental Experiments in Pharmacology)" pp.131-134, 1982, published by Kyourin, Japan), relaxing effect of sulfonamide derivatives of the present invention on bronchial smooth muscle was examined. Of compounds (1) to (69) shown herein, compounds other than acid addition salts were individually used in the form of a hydrochloride which was obtained by the same method as described in Example 61.
From male guinea pigs weighing 350 to 500 g (Hartley strain, Kuroda Junkei Dobutsu), tracheas were excised and each of the excised tracheal specimens was hung in 20 ml of a Magnus tube filled with Krebs-Henseleit solution under isotonic conditions and the solution temperature was kept at 37 °C. An aqueous KCl solution was dropwise added into the Magnus tube (final KCl concentration: 20 mM) to contract the tracheal specimen. After the KCl-induced contraction became stable, each of the compounds of the present invention was dissolved in distilled water or physiological saline, and the compound solution was cumulatively added into the Magnus tube. The relaxing effect of each of the compounds of the present invention on contracted tracheal specimens was evaluated and a dose-response curve was obtained.
A dose required for relaxing KCl-induced contraction to 50 %, i.e., ED₅₀ was calculated from the dose-response curve. For comparison, the same method as described above was repeated except that aminophylline was used, to thereby determine an ED₅₀. The number of tracheal specimens in each group was 3.

Molecule | EC50 [µM]
O=S(=O)(NCCNCCc1ccccc1)c1ccc(Cl)c2ncccc12 [(15)] | 110
CCOc1ccc(S(=O)(=O)NCCNCCc2ccc(Cl)cc2)c2cccnc12 [(17), N-[2-(4-chlorophenethylamino)ethyl]-8-ethoxy-5-quinolinesulfonamide] | 71
COc1ccc(CCN2CCN(CCNS(=O)(=O)c3ccc(Cl)c4ncccc34)CC2)cc1OC [(43), 1-(8-chloro-5-quinolinesulfonylaminoethyl)-4-(3,4-dimethoxyphenethyl)piperazine] | 106
COc1ccc(CCN2CCCN(CCNS(=O)(=O)c3ccc(Cl)c4ncccc34)CC2)cc1OC [(42), 1-(8-chloro-5-quinolinesulfonylaminoethyl)-4-(3,4-dimethoxyphenethyl)homopiperazine] | 95
O=S(=O)(NCCNCc1ccc2c(c1)OCO2)c1ccc(Cl)c2ncccc12 [(13), N-[2-(3,4-methylenedioxybenzylamino)ethyl]-8-chloro-5-quinolinesulfonamide] | 28
O=S(=O)(NCCNCCc1ccc2c(c1)OCO2)c1cccc2cnccc12 [(1), N-[2-(3,4-methylenedioxyphenethylamino)ethyl]-5-isoquinolinesulfonamide] | 7.4
O=S(=O)(c1cccc2ncccc12)N1CCNCC1 [(59), 1-(5-quinolinesulfonyl)piperazine] | 90
CCOc1ccc(S(=O)(=O)NCCN2CCCN(CCc3ccc(OC)c(OC)c3)CC2)c2cccnc12 [(52), 1-(8-ethoxy-5-quinolinesulfonylaminoethyl)-4-(3,4-dioxyphenethyl)homopiperazine] | 102
COc1ccc(CCNCCNS(=O)(=O)c2ccc(Cl)c3ncccc23)cc1OC [(8), N-[2-(3,4-dimethoxyphenethylamino)ethyl]-8-chloro-5-quinolinesulfonamide] | 120
CCOc1ccc(S(=O)(=O)NCCNCCc2ccc(C(F)(F)F)cc2)c2cccnc12 [(18), N-[2-(4-trifluoromethylphenethylamino)ethyl]-8-ethoxy-5-quinolinesulfonamide] | 75
CCOc1ccc(S(=O)(=O)NCCN2CCCN(Cc3ccc(Cl)cc3)CC2)c2cccnc12 [(50), 1-(8-ethoxy-5-quinolinesulfonylaminoethyl)-4-(4-chlorobenzyl)homopiperazine] | 81
O=S(=O)(NCCNCc1ccc2c(c1)OCO2)c1cccc2ncccc12 [Compound (27), N-[2-(3,4-methylenedioxybenzylamino)ethyl]-5-quinolinesulfonamide] | 86
CCOc1ccc(S(=O)(=O)NCCNCc2ccccc2)c2cccnc12 [(25), N-(2-benzylaminoethyl)-8-ethoxy-5-quinolinesulfonamide] | 105
O=S(=O)(c1cccc2ncccc12)N1CCCNCC1 [(58), 1-(5-quinolinesulfonyl)homopiperazine] | 79
O=S(=O)(NCCNCc1cccc(Cl)c1)c1ccc(Cl)c2ncccc12 [(10), N-[2-(3-chlorobenzylamino)ethyl]-8-chloro-5-quinolinesulfonamide] | 120
CCOc1ccc(S(=O)(=O)NCCNCCc2ccc(OC)c(OC)c2)c2cccnc12 [(19), N-[2-(3,4-dimethoxyphenethylamino)ethyl]-8-ethoxy-5-quinolinesulfonamide] | 125
COc1ccc(CCNC(C)CNS(=O)(=O)c2ccc(Cl)c3ncccc23)cc1OC (centres unmarked) [(60), N-[2-(3,4-dimethoxyphenethylamino)-2-methylethyl]-8-chloro-5-quinolinesulfonamide] | 110
COc1ccc(CCNCCNS(=O)(=O)c2ccc(Cl)c3ncccc23)cc1 [(5), N-[2-(4-methoxyphenethylamino)ethyl]-8-chloro-5-quinolinesulfonamide] | 28
O=S(=O)(NCCNCCc1ccc(C(F)(F)F)cc1)c1ccc(Cl)c2ncccc12 [(7), N-[2-(4-trifluoromethylphenethylamino)ethyl]-8-chloro-5-quinolinesulfonamide] | 70
O=S(=O)(NCCN1CCCNCC1)c1cccc2cnccc12 [(29), 1-(5-isoquinolinesulfonylaminoethyl)homopiperazine] | 22
O=S(=O)(NCCN1CCN(Cc2ccc3c(c2)OCO3)CC1)c1ccc(Cl)c2ncccc12 [(39), 1-(8-chloro-5-quinolinesulfonylaminoethyl)-4-(3,4-methylenedioxybenzyl)piperazine] | 31

Molecule | EC50 [µM]
CCOc1ccc(S(=O)(=O)NCCN2CCCNCC2)c2cccnc12 [Compound (46), 1-(8-ethoxy-5-quinolinesulfonylaminoethyl) homopiperazine] | 51
CCOc1ccc(S(=O)(=O)NCCNCCc2ccc(OC)cc2)c2cccnc12 [(16), N-[2-(4-methoxyphenethylamino)ethyl]-8-ethoxy-5-quinolinesulfonamide] | 35
O=S(=O)(NCCNCCc1ccc2c(c1)OCO2)c1ccc(Cl)c2ncccc12 [(9), N-[2-(3,4-methylenedioxyphenethylamino)ethyl]-8-chloro-5-quinolinesulfonamide] | 30
COc1ccc(CNCCNS(=O)(=O)c2ccc(Cl)c3ncccc23)cc1 [(11), N-[2-(4-methoxybenzylamino)ethyl]-8-chloro-5-quinolinesulfonamide] | 125
CCOc1ccc(S(=O)(=O)NCCNCc2ccc3c(c2)OCO3)c2cccnc12 [(24), N-[2-(3,4-methylenedioxybenzylamino)ethyl]-8-ethoxy-5-quinolinesulfonamide] | 31
O=S(=O)(NCCNCc1ccccc1)c1ccc(Cl)c2ncccc12 [(14)] | 97
CCOc1ccc(S(=O)(=O)N2CCNCC2)c2cccnc12 [(57), 1-(8-ethoxy-5-quinolinesulfonyl)piperazine] | 57
CCOc1ccc(S(=O)(=O)NCCNCc2cccc(Cl)c2)c2cccnc12 [(21), N-[2-(3-chlorobenzylamino)ethyl]-8-ethoxy-5-quinolinesulfonamide] | 128
CCOc1ccc(S(=O)(=O)NCCNCc2ccc(OC)c(OC)c2)c2cccnc12 [(23), N-[2-(3,4-dimethoxybenzylamino)ethyl]-8-ethoxy-5-quinolinesulfonamide] | 163
O=S(=O)(NCCN1CCCNCC1)c1cccc2ncccc12 [(44), 1-(5-quinolinesulfonylaminoethyl)homopiperazine] | 91
O=S(=O)(NCCN1CCNCC1)c1ccc(Cl)c2ncccc12 [(37), 1-(8-chloro-5-quinolinesulfonylaminoethyl) piperazine] | 48
O=S(=O)(NCCNCCc1ccc(Cl)cc1)c1ccc(Cl)c2ncccc12 [(6), N-[2-(4-chlorophenethylamino)ethyl]-8-chloro-5-quinolinesulfonamide] | 60
CCOc1ccc(S(=O)(=O)NCCN2CCNCC2)c2cccnc12 [(47), 1-(8-ethoxy-5-quinolinesulfonylaminoethyl) piperazine] | 60
CCOc1ccc(S(=O)(=O)NCCNCCc2ccccc2)c2cccnc12 [(26), N-(2-phenethylaminoethyl)-8-ethoxy-5-quinolinesulfonamide] | 112
O=S(=O)(c1ccc(Cl)c2ncccc12)N1CCNCC1 [(56), 1-(8-chloro-5-quinolinesulfonyl)piperazine] | 49
O=S(=O)(NCCN1CCN(Cc2ccc3c(c2)OCO3)CC1)c1cccc2c(O)nccc12 [(34), 1-(1-hydroxy-5-isoquinolinesulfonylaminoethyl)-4-(3,4-methylenedioxybenzyl)piperazine hydrochloride] | 19
O=S(=O)(NCCN1CCCN(Cc2ccc(Cl)cc2)CC1)c1ccc(Cl)c2ncccc12 [(40), 1-(8-chloro-5-quinolinesulfonylaminoethyl)-4-(4-chlorobenzyl)homopiperazine] | 68
O=S(=O)(NCCN1CCCN(Cc2ccc3c(c2)OCO3)CC1)c1cccc2ncccc12 [(45), 1-(5-quinolinesulfonylaminoethyl)-4-(3,4-methylenedioxybenzyl)homopiperazine] | 84
CCOc1ccc(S(=O)(=O)NCCNCc2ccc(OC)cc2)c2cccnc12 [(22), N-[2-(4-methoxybenzylamino)ethyl]-8-ethoxy-5-quinolinesulfonamide] | 131
O=S(=O)(NCCN1CCN(Cc2ccc(Cl)cc2)CC1)c1ccc(Cl)c2ncccc12 [(41), 1-(8-chloro-5-quinolinesulfonylaminoethyl)-4-(4-chlorobenzyl)piperazine] | 78

Same assay, conditions: dose required for relaxing KCl-induced contraction to 50 %; final KCl concentration: 20 mM; 37 °C; compounds other than acid addition salts used as hydrochloride; 3 specimens per group; read-out: ED₅₀ Effect on KCl-induced contraction

Molecule | EC50 [µM]
1-(1-hydroxy-5-isoquinolinesulfonylaminoethyl) homopiperazine hydrochloride [(33)] | 24
1-(1-hydroxy-5-isoquinolinesulfonylaminoethyl) piperazine hydrochloride [(32)] | 27
1-(1-hydroxy-5-isoquinolinesulfonylaminoethyl)-3-(3,4-methylenedioxybenzyl)homopiperazine hydrochloride [(35)] | 18
